# Results from article PMC8474110 (Journal of Medicinal Chemistry, 2021).
# Like-named read-outs stand apart in the source and are kept apart here.
# Assay: Chemical stability (kinetics of chemical hydrolysis) in buffer solutions
# Type: physicochemical
# Settings: for half-life at 9.1 µM: read-out: t1/2, chemical stability (converted)
# Experimental: The chemical stability of (±)-1 was evaluated in buffer solutions at pH 1.3 and 7.4 (Table 1).
# A 0.02 M phosphate buffer (PBS, pH 7.4) and a 0.02 M hydrochloric buffer (pH 1.3) containing 0.1% (v/v) Cremophor ELP, was used to evaluate chemical stabilities at physiological pHs. The reaction was initiated by adding 1 mL of 10^–4 M stock solution (in acetonitrile) of the compound to 10 mL of thermostated (37 ± 0.5 °C) buffer solution. At established time points, the samples (20 μL) were withdrawn and analyzed by HPLC. Pseudo-first-order rate constants (kobs) for the hydrolysis of the compounds were then calculated considering the slopes of the linear plots of log (% residual compound) against time. The analyses were run in triplicate, and the mean values of the rate constants were calculated.
structure (smiles),measurement,setting,value
CCCC(CCC)C(=O)OC(CCCN1CCC(O)(c2ccc(Cl)cc2)CC1)c1ccc(F)cc1 (racemic) [(±)-1],"Kobs, chemical stability","buffer pH 1.3, 37 °C",0.007 ± 0.001 h^–1
same,"Kobs, chemical stability","buffer pH 7.4, 37 °C",0.007 ± 0.001 h^–1
same,time the racemate was stable,buffer solutions at pH 1.3 and 7.4 (both environments),about 4 days
same,half-life at 9.1 µM,"hydrochloric buffer, buffer pH 1.3, 37 °C",100 ± 3.1 h
same,half-life at 9.1 µM,"phosphate buffer, buffer pH 7.4, 37 °C",96.4 ± 1.6 h
